This passage reports Ki, IC50 and ED50 results from ChEMBL document CHEMBL1136106, “Synthesis and biological activities of 1-pyridylisoquinoline and 1-pyridyldihydroisoquinoline derivatives as PDE4 inhibitors” (Bioorg Med Chem Lett, 2003).

In assay [1] the target is T1, Phosphodiesterase 4 (Homo sapiens, UniProt P27815+Q08499+Q07343+Q08493). Briefly: Inhibition of rolipram binding to phosphodiesterase 4. The assay is classed as protein assay.
The target of assay [2] is T1, Phosphodiesterase 4. Kind of assay: Inhibition of phosphodiesterase 4. The assay is classed as protein assay.
Another assay is filed under the species Mus musculus. Briefly: Inhibition of LPS-induced TNF-alpha production in mice after 30 min peroral dose. The assay is classed as functional. The conditions noted are these: po, 0.5 h.

At Phosphodiesterase 4 [1], `COc1cc2cc(CO)cc(-c3ccnc(-n4nc(-c5cccnc5)c5ccccc5c4=O)c3)c2cc1OC.Cl` gave a Ki of 3 nM.
For `COc1cc2c(cc1OC)C(c1ccnc(-n3nc(Cc4cccnc4)c4ccccc4c3=O)c1)=N[C@H](CO)C2.Cl`, the IC50 against Phosphodiesterase 4 [2] was found to be 2 nM. At Phosphodiesterase 4 [1], the Ki stood at 3.1 nM.
In turn, `COc1cc2cc(CO)nc(-c3ccnc(-n4nc(-c5cccs5)c5ccccc5c4=O)c3)c2cc1OC.Cl` yielded an ED50 in the assay filed under Mus musculus of 1.6 mg/kg. This compound also showed a half-inhibitory concentration (IC50) against Phosphodiesterase 4 [2] of 0.3 nM. Further, the Ki at Phosphodiesterase 4 [1] was 1.4 nM.
The like results for `COc1cc2cc(CO)nc(-c3ccnc(-n4nc(-c5nccs5)c5ccccc5c4=O)c3)c2cc1OC.Cl` were, in that order, 0.26 mg/kg, 0.3 nM and 1.7 nM.
At Phosphodiesterase 4 [2], `COc1cc2cc(CO)nc(-c3ccnc(-n4nc(-c5cccnc5)c5ccccc5c4=O)c3)c2cc1OC.Cl` returned an IC50 of 0.6 nM. The Ki on Phosphodiesterase 4 [1] is 1.4 nM.
As for `COc1ccc(C2CNC(=O)C2)cc1OC1CCCC1` (stereo not drawn) [ROLIPRAM], the 50% effect level in the assay filed under Mus musculus (ED50) was put at a dose of 2.6 mg/kg.
Regarding `COc1cc2c(cc1OC)C(c1ccnc(-n3nc(-c4cncnc4)c4ccccc4c3=O)c1)=N[C@H](CO)C2.Cl`, the IC50 against Phosphodiesterase 4 [2] is listed as 3 nM. Besides, the Ki on Phosphodiesterase 4 [1] turned out to be 5.4 nM.
`COc1cc2cc(CO)c(CO)c(-c3ccnc(-n4nc(-c5cccnc5)c5ccccc5c4=O)c3)c2cc1OC.Cl` showed an ED50 in the assay listed under Mus musculus of 1.2 mg/kg. This compound yielded an IC50 against Phosphodiesterase 4 [2] of 0.7 nM.
As to `COc1cc2c(cc1OC)C(c1ccnc(-n3ccc4c(OCc5cccnc5)cccc4c3=O)c1)=N[C@H](CO)C2.Cl`, in the assay listed under Mus musculus, the ED50 came out at 2.4 mg/kg. Besides, the IC50 on Phosphodiesterase 4 [2] turned out to be 0.4 nM. The compound also gave a Ki at Phosphodiesterase 4 [1] of 1.5 nM.
`COc1ccc(C(=O)Nc2c(Cl)cncc2Cl)cc1OC1CCCC1`: the ED50 in the assay filed under Mus musculus worked out at 0.72 mg/kg.
For the compound `COc1cc2c(cc1OC)C(c1ccnc(-n3ccc4c(OCCN5CCOCC5)cccc4c3=O)c1)=N[C@H](CO)C2.Cl`, it took a dose of 0.13 mg/kg to reach the 50% effect level in the assay filed under Mus musculus (ED50). The IC50 at Phosphodiesterase 4 [2] is given as 0.5 nM. The same compound came in with a Ki at Phosphodiesterase 4 [1] of 1.8 nM.
Turning to `COc1cc2c(cc1OC)C(c1ccnc(-n3nc(-c4cccnc4)c4ccccc4c3=O)c1)=N[C@H](CO)C2.Cl`, the ED50 in the assay listed under Mus musculus is 0.52 mg/kg. In addition, on Phosphodiesterase 4 [2], the IC50 is listed as 1 nM. On Phosphodiesterase 4 [1], this compound yielded a Ki of 6.5 nM.
For `COc1cc2nc(CO)c(CO)c(-c3ccnc(-n4nc(-c5cccnc5)c5ccccc5c4=O)c3)c2cc1OC.Cl`, the IC50 at Phosphodiesterase 4 [2] was determined as 70 nM. In addition, at Phosphodiesterase 4 [1], the Ki is listed as 120 nM.

A word on the Ki: it is the dissociation constant of the complex between target and ligand, obtained from inhibition or displacement. A word on the IC50: it is the concentration that inhibits the measured activity by half. Higher therefore signals weaker potency. A word on the ED50: it is the dose at which the effect has come halfway, by size or by number of responders. Read a high ED50 as weaker potency.
